Legend:
deltaF508 CFTR = biological target: T1, deltaF508 CFTR (Homo sapiens, UniProt P13569, DEL508-508); assay: CFBE potentiator assay (FLIPR membrane potential, temperature-rescued); type: cell-based; conditions: CFBE cells, 3 micromolar forskolin; read-out: CFBE potentiator assay pot. pEC50 (converted)
T1 construct: host or cells: CFBE (cystic fibrosis bronchial-derived cell line)
Method: Cell culture: HEK293 cells stably expressing human deltaF508 CFTR were cultured in DMEM/F12 medium containing 10% fetal bovine serum (FBS) and 600 micrograms/mL geneticin. For functional CFTR assays, cryo-preserved cells were quickly thawed in a 37° C. water bath, diluted with warm DMEM/F12 medium containing 10% FBS, spun down at 300×g for 5 mins and resuspended in the same medium at a density of 300,000 cells/mL. A cystic fibrosis bronchial-derived cell line complemented with a 4.7 Kb deltaF508 CFTR cDNA (“CFBE”) was obtained from Dr. Dieter Gruenert under a license from UCSF. These cells were cultured in MEM with Earle's salt (Invitrogen)supplemented with 10% fetal bovine serum (Invitrogen) and 300 micrograms/mL hygromycin (Millipore). CFBE cells were grown on flasks coated with a fibronectin solution containing LHC basal medium (Invitrogen), 0.001% bovine serum albumin (Sigma), 1% v/v Vitrogen 100 (BD Bioscience) and 10 micrograms/mL human fibronectin (Life Technologies). All cells were grown at 37° C. and 5% CO2 unless specified for an assay.
CFBE potentiator assay: CFBE cells were dissociated for 10 mins at 37° C. with Hank's balanced salt solution containing 0.6 mM EDTA and 10% of a 0.25% Trypsin/EDTA solution (all from Life Technologies). An equal amount of CFBE cell growth medium (see Cell culture above) was then added to the flasks and cells were spun at 500×g for 10 mins. Cells were re-suspended in cell medium at a density of 150,000 cells/mL and plated in 384-well black, poly-D-Lysine-coated plates (7,500 cells/well). Cells were then grown at 37° C., 5% CO2 for a total of 6-8 days to allow differentiation. Cell medium was changed every 2-3 days. The day before each experiment, culture medium was removed, fresh culture medium was added and cells were placed at 30° C., 5% CO2 for 18-24 hrs to allow temperature rescue of delF508 CFTR. Potentiation activity was measured as described above for HEK cells except cells were stained for exactly 60 mins, compounds (or DMSO for negative control) were mixed with assay buffer containing 3 micromolar forskolin, and the positive control wells had assay buffer containing 3 micromolar forskolin and 9 micromolar VX-770 (Selleckchem).
Data analysis: CFTR activity was defined as maximum fluorescence signal after addition minus baseline fluorescence. All data were normalized to each plate's positive and negative controls and expressed as percent responses. Concentration response curves were analyzed by fitting the data to a 4-parameter logistic equation in Microcal's Origin or IDBS' Activity Base software.

Wt-CFTR = Wt-CFTR (Homo sapiens, UniProt P13569); assay: Calu-3 CSE experiments, FLiPR assay of CFTR channel activity; type: cell-based; design: this airway epithelial cell line endogenously expresses this channel; endogenous in cells; host or cells: Calu-3
Chain of Wt-CFTR (P13569 whole entry): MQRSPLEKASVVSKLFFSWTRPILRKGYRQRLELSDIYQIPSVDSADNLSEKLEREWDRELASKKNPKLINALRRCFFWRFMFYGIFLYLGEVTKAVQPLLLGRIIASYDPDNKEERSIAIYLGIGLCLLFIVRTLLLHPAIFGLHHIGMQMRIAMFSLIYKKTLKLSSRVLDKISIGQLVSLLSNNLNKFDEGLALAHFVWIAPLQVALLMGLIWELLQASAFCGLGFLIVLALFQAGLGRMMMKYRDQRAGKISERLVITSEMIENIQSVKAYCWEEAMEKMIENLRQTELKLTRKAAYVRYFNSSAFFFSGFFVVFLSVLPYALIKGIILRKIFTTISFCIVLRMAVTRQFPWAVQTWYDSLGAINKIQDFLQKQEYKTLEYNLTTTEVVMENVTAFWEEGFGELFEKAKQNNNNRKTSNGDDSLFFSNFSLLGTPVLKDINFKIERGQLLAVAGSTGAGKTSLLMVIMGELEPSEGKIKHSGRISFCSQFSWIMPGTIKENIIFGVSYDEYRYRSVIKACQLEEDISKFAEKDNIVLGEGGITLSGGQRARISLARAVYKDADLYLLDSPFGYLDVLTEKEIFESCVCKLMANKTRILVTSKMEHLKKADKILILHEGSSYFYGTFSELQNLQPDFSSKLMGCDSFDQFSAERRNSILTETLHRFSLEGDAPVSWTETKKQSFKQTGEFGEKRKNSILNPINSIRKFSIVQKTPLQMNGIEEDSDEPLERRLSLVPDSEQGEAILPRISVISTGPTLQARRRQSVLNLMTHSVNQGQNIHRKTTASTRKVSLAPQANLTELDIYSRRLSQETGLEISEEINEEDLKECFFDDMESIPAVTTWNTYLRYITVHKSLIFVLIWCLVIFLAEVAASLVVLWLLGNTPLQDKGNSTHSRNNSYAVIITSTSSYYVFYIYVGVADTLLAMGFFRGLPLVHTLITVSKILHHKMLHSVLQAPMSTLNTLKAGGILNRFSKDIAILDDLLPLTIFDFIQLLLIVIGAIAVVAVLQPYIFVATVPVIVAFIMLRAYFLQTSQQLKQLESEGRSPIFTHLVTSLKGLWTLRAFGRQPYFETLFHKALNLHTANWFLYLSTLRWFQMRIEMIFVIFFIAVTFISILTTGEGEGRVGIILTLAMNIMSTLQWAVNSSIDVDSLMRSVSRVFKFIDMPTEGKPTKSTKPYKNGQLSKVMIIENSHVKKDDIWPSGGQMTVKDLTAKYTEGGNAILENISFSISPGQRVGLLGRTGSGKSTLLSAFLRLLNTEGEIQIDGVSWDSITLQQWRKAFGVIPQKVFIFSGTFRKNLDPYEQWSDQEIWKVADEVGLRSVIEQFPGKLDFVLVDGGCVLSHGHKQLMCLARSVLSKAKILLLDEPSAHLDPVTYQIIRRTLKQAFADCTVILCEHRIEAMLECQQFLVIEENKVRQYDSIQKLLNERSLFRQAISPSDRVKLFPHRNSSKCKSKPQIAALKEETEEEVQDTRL
Method: Addition of CFTR-inhibitor indicated with grey arrow. Superimposed, we show the effect of acute co-application of VX-770 (open squares) or SK-POT (open triangles) with forskolin. […] Only SK-POT rescued CFTR channel function in the presence of cigarette smoke extract.
Calu-3 cells were cultured using EMEM (Wisent) supplemented with FBS at 20% (v/v) and 1× Penicillin/Streptomycin (Wisent). Calu-3 cells were seeded on clear-bottom, black-walled 96 well plates (Costar, Corning) at a density of 10,000 cells/well and cultured for 2 days post-confluence. Cells then received the chronic treatment of toxin and potentiator. The toxin treatment consisted of either cigarette smoke extract (CSE) prepared in 100% DMSO (University of Alabama at Birmingham), dissolved at a concentration of 2% (v/v) in Calu-3 medium, with an equivalent concentration of DMSO alone serving as the toxin control. The chronic drug treatment was co-applied with the toxin, which included either VX-770 or Compound 11 (both prepared in 100% DMSO) dissolved in Calu-3 medium at a final concentration of 1 μm. VX-770 (Vertex) and Compound 11 solutions were prepared from 1 mM stocks. The control for the drug treatment was the vehicle, DMSO at an equivalent volume. Combining the two toxin treatments and three drug treatments, a total of six treatments were applied chronically to 4 wells per condition, for a total of 24 wells receiving chronic treatment.
Cells were cultured for an additional 24 hours after chronic treatment application, after which cells were incubated with FLiPR assay buffer. The FLiPR assay buffer consisted of blue FLiPR dye (Molecular Devices) dissolved at a concentration of 0.5 mg/mL in chloride-free buffer (150 mM NMDG, 150 mM gluconolactone, 3 mM potassium gluconate, 300 mOsm and pH 7.38). Buffer was incubated with cells at 37 degrees and 5% CO2 for 35 minutes. CFTR function was assessed by measuring changes in fluorescence activity after acute CFTR channel activation by addition of cAMP agonist forskolin dissolved in chloride-free buffer to a final concentration 1 μm, using the SpectraMax i3x multimodal plate reader. Fluorescence readings (excitation 530 nm; emission 560 nm) for each well were taken at 30-second intervals for 5 minutes (baseline) or 10 minutes (activation). CFTR activity was then terminated by addition of CFTR-inhibitor 172 dissolved in chloride-free buffer to a concentration of 10 μm, to further verify the specificity of the response to CFTR activity. Fluorescence changes were recorded at 30-second intervals for another 10 minutes. In analysis, all fluorescence values were normalized per well to the final reading prior to the addition of forskolin and expressed as a percentage of this reading.

T1 sequence (P13569 with tags, fused parts or gaps DEL508-508): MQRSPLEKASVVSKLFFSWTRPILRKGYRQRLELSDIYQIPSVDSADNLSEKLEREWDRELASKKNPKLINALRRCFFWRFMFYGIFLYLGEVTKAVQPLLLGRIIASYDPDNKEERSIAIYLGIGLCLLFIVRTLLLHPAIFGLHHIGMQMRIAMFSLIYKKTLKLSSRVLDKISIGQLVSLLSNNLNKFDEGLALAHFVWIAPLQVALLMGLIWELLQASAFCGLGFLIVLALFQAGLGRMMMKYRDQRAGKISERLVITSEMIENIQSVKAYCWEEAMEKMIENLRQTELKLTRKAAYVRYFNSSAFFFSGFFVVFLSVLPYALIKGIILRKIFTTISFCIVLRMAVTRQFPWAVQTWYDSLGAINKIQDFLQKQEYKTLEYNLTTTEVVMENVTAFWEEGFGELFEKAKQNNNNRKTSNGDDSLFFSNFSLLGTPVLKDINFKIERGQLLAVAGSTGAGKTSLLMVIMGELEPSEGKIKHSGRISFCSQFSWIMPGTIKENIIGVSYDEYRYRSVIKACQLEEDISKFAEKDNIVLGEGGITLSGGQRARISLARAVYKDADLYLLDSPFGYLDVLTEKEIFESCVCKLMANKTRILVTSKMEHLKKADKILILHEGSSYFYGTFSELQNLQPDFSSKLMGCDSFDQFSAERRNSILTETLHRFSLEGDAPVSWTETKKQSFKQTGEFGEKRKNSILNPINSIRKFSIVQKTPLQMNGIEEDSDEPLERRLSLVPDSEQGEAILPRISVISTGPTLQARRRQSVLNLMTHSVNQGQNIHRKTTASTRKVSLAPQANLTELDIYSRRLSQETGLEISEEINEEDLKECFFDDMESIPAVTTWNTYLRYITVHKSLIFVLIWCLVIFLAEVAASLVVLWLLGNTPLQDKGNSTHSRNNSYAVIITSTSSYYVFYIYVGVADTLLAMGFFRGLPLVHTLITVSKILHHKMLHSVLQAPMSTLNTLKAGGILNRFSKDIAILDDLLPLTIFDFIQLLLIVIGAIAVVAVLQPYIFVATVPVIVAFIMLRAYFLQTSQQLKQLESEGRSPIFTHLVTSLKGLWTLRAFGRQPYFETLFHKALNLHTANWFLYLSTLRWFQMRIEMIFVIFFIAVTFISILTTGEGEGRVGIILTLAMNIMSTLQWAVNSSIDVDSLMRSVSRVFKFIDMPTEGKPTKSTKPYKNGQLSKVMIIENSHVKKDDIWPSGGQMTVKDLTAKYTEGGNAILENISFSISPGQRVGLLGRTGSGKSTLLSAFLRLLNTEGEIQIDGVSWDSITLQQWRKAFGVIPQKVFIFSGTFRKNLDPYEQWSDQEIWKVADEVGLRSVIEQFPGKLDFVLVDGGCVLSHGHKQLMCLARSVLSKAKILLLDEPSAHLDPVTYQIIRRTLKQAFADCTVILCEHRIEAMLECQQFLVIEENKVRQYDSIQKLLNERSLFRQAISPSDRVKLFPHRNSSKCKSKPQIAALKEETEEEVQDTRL

EC50 (deltaF508 CFTR): 10 nM | EC90 (Wt-CFTR; Calu-3, CFTR channel potentiation, read-out: approximate EC90): ~1000 nM
SMILES: CC(C)(C)c1ccc(-n2nc(-c3ccc(F)cc3)c(N3CCCCC3)c(N)c2=O)cc1O [Compound 11, 4-amino-2-(4-(tert-butyl)-3-hydroxyphenyl)-6-(4-fluorophenyl)-5-(piperidin-1-yl)pyridazin-3(2H)-one]
forskolin-activated CFTR channel activity after CSE exposure (Wt-CFTR; Calu-3, CSE 2%, compounds 1 uM): significant increase in forskolin-activated CFTR channel activity

Reference: patent publication US20260055065A1, “PYRIDAZINONE COMPOUNDS WHICH MODULATE MUTANT PROTEINS FOR TREATING RESPIRATORY DISEASES” (The Hospital for Sick Children, priority 2022, published 2026)
